These results are taken from PMC11694444 (RSC Advances, 2025).

Where two headings read alike, the source gives them in different places.

Common to all, as to format: biochemical
Experiment [1] concerns the target BChE (EC 3.1.1.8) (Homo sapiens, UniProt P06276). Description: In vitro BChE inhibition assay.
The target of experiment [2] is T1, MAO-A (Homo sapiens, UniProt P21397).
T1 sequence (P21397 1-527): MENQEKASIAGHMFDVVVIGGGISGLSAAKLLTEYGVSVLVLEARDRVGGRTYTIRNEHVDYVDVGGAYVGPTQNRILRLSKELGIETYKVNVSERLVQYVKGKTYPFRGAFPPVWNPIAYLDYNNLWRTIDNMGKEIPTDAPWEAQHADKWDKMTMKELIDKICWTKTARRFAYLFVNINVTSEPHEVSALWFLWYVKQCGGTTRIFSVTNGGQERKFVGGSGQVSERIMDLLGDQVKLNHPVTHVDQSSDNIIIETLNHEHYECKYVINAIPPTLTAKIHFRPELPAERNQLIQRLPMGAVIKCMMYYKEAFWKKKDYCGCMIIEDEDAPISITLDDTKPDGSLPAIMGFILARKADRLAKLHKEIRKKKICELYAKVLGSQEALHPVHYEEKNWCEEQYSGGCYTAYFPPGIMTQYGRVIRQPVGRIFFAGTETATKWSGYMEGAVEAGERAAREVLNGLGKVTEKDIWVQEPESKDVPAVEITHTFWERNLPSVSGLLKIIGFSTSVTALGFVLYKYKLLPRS
Description: In vitro MAO-A inhibition assay.

Experiment [3] addresses AChE (EC Number: 3.1.1.7.) (Homo sapiens, UniProt P22303). Kind of experiment: In vitro AChE inhibition assay.
The target in experiment [4] is T2, MAO-B (Homo sapiens, UniProt P27338).
T2 sequence (P27338 1-520): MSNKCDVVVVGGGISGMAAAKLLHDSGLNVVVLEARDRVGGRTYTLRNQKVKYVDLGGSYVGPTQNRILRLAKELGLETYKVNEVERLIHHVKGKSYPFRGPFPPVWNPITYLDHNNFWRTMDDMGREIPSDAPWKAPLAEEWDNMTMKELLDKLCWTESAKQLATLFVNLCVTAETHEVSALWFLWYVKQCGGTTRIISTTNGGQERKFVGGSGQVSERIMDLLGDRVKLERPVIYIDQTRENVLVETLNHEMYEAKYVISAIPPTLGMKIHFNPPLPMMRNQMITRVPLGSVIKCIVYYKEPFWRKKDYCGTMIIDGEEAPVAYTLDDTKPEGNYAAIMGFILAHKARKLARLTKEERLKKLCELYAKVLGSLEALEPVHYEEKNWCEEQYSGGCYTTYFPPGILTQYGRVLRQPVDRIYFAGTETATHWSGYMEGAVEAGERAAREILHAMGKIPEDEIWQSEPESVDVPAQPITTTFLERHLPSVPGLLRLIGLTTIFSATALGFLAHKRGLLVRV
Kind of experiment: In vitro MAO-B inhibition assay.

In experiment [5] the target is T3, Cyclooxygenase (COX-2) from human recombinant (Homo sapiens, UniProt P35354).
T3 sequence (P35354 18-604): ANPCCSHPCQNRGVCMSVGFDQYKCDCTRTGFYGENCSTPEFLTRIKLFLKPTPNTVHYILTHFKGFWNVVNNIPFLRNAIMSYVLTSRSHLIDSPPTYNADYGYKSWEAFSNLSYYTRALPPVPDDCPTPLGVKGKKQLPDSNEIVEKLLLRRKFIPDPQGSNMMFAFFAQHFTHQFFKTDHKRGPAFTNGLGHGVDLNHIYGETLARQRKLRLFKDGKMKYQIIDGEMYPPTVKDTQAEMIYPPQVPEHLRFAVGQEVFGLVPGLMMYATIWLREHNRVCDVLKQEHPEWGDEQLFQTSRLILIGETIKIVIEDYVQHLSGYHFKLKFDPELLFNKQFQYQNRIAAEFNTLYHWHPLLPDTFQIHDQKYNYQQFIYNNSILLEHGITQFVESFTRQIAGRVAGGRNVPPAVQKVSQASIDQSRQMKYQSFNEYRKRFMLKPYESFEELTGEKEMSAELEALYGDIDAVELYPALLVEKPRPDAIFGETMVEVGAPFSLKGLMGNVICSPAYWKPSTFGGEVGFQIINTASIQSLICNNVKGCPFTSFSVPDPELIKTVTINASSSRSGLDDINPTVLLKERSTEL
Kind of experiment: biochemical.

Experiment [6] concerns the target 5-lipoxygenase (5-LOX). Kind of experiment: 5-Lipoxygenase inhibitory assay. To be noted: read-out: IC50 (μM) ± SEM 5-LOX.
The mark [7] stands for this setting: read-out: IC50 (μM) ± SEM BChE, ± SEM.
Setting [8] is: read-out: IC50 (μM) ± SEM MAO-A, ± SEM.

Sequence of BChE (EC 3.1.1.8) (P06276 29-602, species assumed): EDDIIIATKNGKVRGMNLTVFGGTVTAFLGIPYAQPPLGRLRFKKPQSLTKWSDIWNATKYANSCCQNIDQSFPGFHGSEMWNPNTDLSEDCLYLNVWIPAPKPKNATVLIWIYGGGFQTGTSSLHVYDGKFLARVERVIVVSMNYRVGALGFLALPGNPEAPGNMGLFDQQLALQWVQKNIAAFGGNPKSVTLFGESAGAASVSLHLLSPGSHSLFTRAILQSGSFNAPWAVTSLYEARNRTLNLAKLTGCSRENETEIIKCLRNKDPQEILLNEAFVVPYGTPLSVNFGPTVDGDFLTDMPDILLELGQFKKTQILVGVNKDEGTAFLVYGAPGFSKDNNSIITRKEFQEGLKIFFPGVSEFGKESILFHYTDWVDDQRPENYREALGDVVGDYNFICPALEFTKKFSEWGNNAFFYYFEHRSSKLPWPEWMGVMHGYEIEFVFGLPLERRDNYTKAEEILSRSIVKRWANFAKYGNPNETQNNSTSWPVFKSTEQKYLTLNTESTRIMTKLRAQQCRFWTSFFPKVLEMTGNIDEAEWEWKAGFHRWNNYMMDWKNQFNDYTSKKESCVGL
Sequence of AChE (EC Number: 3.1.1.7.) (P22303 32-614): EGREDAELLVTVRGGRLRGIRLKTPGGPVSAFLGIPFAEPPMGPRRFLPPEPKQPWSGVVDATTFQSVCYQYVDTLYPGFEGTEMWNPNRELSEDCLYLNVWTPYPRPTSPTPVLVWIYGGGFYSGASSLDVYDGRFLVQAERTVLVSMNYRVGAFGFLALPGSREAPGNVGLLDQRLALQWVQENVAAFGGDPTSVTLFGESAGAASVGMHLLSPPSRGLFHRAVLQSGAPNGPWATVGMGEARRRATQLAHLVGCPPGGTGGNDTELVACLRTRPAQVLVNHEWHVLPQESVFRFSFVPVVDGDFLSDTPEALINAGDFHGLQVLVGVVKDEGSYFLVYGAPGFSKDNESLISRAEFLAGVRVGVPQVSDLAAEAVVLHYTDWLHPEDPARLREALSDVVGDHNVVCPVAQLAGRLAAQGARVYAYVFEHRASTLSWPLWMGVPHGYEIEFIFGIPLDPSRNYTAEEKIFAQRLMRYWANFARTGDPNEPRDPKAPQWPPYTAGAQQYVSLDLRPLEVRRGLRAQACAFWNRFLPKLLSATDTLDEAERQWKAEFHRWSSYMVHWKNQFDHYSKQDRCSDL

By IC50 is commonly meant the concentration that inhibits the measured activity by half. For the compound “3-(3-(4-(3,5-Bis(2-hydroxyphenyl)-1H-1,2,4-triazol-1-yl)phenyl)-1,8a-dihydro-7H-[1,2,4]triazolo[3,4-b][1,3,4]thiadiazin-6-yl)-3,10a-dihydro-2H-benzo[g]chromen-2-one [Compound 22]”, the IC50 in experiment [1] (setting [7]) worked out at 10.8 ± 0.97 µM; in experiment [2] (setting [8]) it was 0.61 ± 0.07 µM.
For the compound `O=C(O)c1ccc(-n2nc(-c3ccccc3O)nc2-c2ccccc2O)cc1` [Compound 9, deferasirox, reference compound], the IC50 in experiment [3] is 430 ± 50 nM; in experiment [1], 0.11 ± 0.005 µM; in experiment [2] it was 10 ± 1.78 µM; in experiment [4], 180 ± 10 nM; in experiment [5] it was 4930 ± 380 nM; in experiment [6], 1.28 ± 0.13 µM. The “inhibition of AChE, in words” value in experiment [3] was “significant inhibition”. Moreover, the “activity against BChE, in words” value in experiment [1] was “excellent to moderate activity”. The “activity against COX-2, in words” value in experiment [5] is recorded as “good to moderate activity”.
Regarding “3-(3-(4-(3,5-Bis(2-hydroxyphenyl)-1H-1,2,4-triazol-1-yl)phenyl)-1,8a-dihydro-7H-[1,2,4]triazolo[3,4-b][1,3,4]thiadiazin-6-yl)-7-bromo-3,8a-dihydro-2H-chromen-2-one [Compound 23]”, in experiment [1], the “activity against BChE, in words” value is recorded as “excellent to moderate activity”. The values for the IC50 in experiment [1] (setting [7]) and in experiment [2] (setting [8]) were 14 ± 1.11 µM and 1.32 ± 0.11 µM, respectively.
Regarding “2,2′-(1-(4-(6-(2,4-Dichlorophenyl)-1,8a-dihydro-7H-[1,2,4]triazolo[3,4-b][1,3,4]thiadiazin-3-yl)phenyl)-1H-1,2,4-triazole-3,5-diyl)diphenol [Compound 25]”, the IC50 in experiment [1] (setting [7]) amounted to 1.09 ± 0.11 µM; in experiment [2] (setting [8]), 0.81 ± 0.02 µM.
For `Oc1ccccc1-c1nc(-c2ccccc2O)n(-c2ccc(-c3nnc4n3N=C(c3ccc(Cl)cc3)CS4)cc2)n1` [Compound 15, 2,2′-(1-(4-(6-(4-Chlorophenyl)-7H-[1,2,4]triazolo[3,4-b][1,3,4]thiadiazin-3-yl)phenyl)-1H-1,2,4-triazole-3,5-diyl)diphenol], the IC50 in experiment [1] is 3.96 ± 0.22 µM; in experiment [2], 3.58 ± 0.56 µM; in experiment [5], 75300 ± 3560 nM. The “activity against COX-2, in words” value in experiment [5] is recorded as “good to moderate activity”.
